In US20200245620A1 (priority 2018, published 2020):
Values after ≈ are worked out from the molar mass of the structure shown. Values joined by “and” are separate entries in the source; they are usually repeats but may differ in a detail not shown here. Identical values can stand only once. Like-named read-outs stand apart in the source and are kept apart here.

Assays:
[1] = system: Fusarium graminearum; experiment: microbe, parasite or virus in culture; format: cell-based; details: for EC50: F.g sensitive strains
[2] = system: rust of wheat; details: in vivo
[3] = system: wheat scab; format: in vivo
[4] = system: wheat scab fungi; format: in vivo
[5] = system: sheath blight of wheat; experiment: Field efficacy on wheat diseases; format: in vivo; details: 40 g a.i./Mu
Protocol: (§1) The field prevention and control efficacy of the fungicidal composition preparations of embodiments 1-8 on wheat diseases was experimented. The experimental field was arranged in Jiangsu Yancheng Xinyang Farm. The wheat variety was Huaimai 33. At the initial stage of wheat blooming, a Nongjiale 16L knapsack electric sprayer was adopted to carry out application for the first time, application was carried out for the second time after five days, water consumption was 50 kg/Mu, the area of each plot was 50 square meters, each treatment was repeated for three times, and the fungicidal composition was not applied on the blank control. Meanwhile, 80 g of carbendazim wettable powder which was 50 percent was used as a control agent for treatment per mu. According to a corresponding method specified by the industrial standard of Guidelines for the Field Efficacy Trials of Fungicides issued by the Ministry of Agriculture, the occurrences of powdery mildew, rust, sheath blight and leaf blight of wheat were investigated at the stage of milky ripeness, disease indexes and prevention and control effects were calculated, and the result is shown in table 7.

[6] = system: powdery mildew of wheat; experiment: Field efficacy on wheat diseases; format: in vivo; details: 40 g a.i./Mu
Protocol: as §1

[7] = system: leaf blight of wheat; experiment: Field efficacy on wheat diseases; format: in vivo; details: 40 g a.i./Mu
Protocol: as §1

[8] = system: Fusarium asiaticum; experiment: microbe, parasite or virus in culture; format: cell-based
[9] = system: barley rust; details: in vivo
[10] = system: barley leaf blight; experiment: Field efficacy on barley diseases; format: in vivo
Protocol: (§2) The field prevention and control efficacy of the fungicidal composition preparations of embodiments 1-8 on barley diseases was experimented, wherein different doses of single jinggangmycin agent and single ipconazole agent were designed for treatment. In 2014, application was carried out for the first time at the initial stage of barley blooming, application was carried out for the second time after five days, water consumption was 50 kg/Mu, the area of each plot was 50 square meters, each treatment was repeated for three times, and the fungicidal composition was not applied on the blank control. A conventional agent, polyketone wettable powder, was adopted as a control agent. According to a corresponding method specified by the industrial standard of Guidelines for the Field Efficacy Trials of Fungicides issued by the Ministry of Agriculture, the occurrences of barley scab, powdery mildew, rust and leaf blight were investigated at the stage of milky ripeness, disease indexes and prevention and control effects were calculated, and the result is shown in table 8. One hundred and fifty barley ears were sampled randomly every five treated points at the stage of wax ripeness, taken in for threshing and assayed according to the method of application embodiment 1, and toxin contents of the kernels were calculated.

[11] = system: barley powdery mildew; experiment: Field efficacy on barley diseases; format: in vivo
Protocol: as §2

[12] = system: Carbendazim-resistant fusarium asiaticum; experiment: microbe, parasite or virus in culture; format: cell-based; details: for inhibition at 1 µg/mL / inhibition at 10 µg/mL / inhibition at 100 µg/mL / inhibition at 1000 µg/mL / inhibition at 10000 µg/mL: Fusarium asiaticum, read-out: DON Biosynthesis Inhibition Rate
[13] = system: barley scab (fusarium head blight); format: in vivo
[14] = system: barley scab (fusarium head blight); format: in vivo; remark: listed apart in the source
[15] = system: Tri5 gene; format: cell-based, fusarium asiaticum
[16] = Fusarium asiaticum, read-out: Growth Inhibition Rate

COC(=O)Nc1nc2ccccc2[nH]1 [Carbendazim, carbendazim]
EC50 ([1]; Fusarium graminearum): 0.45 µg/mL (≈ 2.35 µM)
Disease Index Prevention Effect, Rust [2]: 61.24%
Disease Index Prevention Effect, Actual Prevention Effect ([3]; 40 g a.i./Mu): 67.5%
DON Contamination Reduction Rate ([4]; 40 g a.i./Mu): 58.42%
Grain Toxin Content ([4]; 40 g a.i./Mu): 4.42 μg of toxin/g of kernels
Disease Index Prevention Effect, Sheath Blight [5]: 44.65%
Disease Index Prevention Effect, Powdery Mildew [6]: 52.62%
Disease Index Prevention Effect, Leaf Blight [7]: 48.53%
EC50 ([8]; Fusarium asiaticum): 0.45 µg/mL (≈ 2.35 µM)

CC(C)C1CCC(Cc2ccc(Cl)cc2)C1(O)Cn1cncn1 (stereo not shown) [Ipconazole]
Disease Index Prevention Effect, Rust [9]: 74.25% and 82.65%
EC50 ([1]; Fusarium graminearum): 0.89 µg/mL (≈ 2.67 µM)
inhibition at 0.0125 µg/mL ([1]; Fusarium graminearum, read-out: Growth Inhibition Rate, sensitive strains, 0.0125 μg/mL): 28.9%
inhibition at 0.025 µg/mL ([1]; Fusarium graminearum, read-out: Growth Inhibition Rate, sensitive strains, 0.025 μg/mL): 38.3%
inhibition at 0.05 µg/mL ([1]; Fusarium graminearum, read-out: Growth Inhibition Rate, sensitive strains, 0.05 μg/mL): 40.8%
inhibition at 0.1 µg/mL ([1]; Fusarium graminearum, read-out: Growth Inhibition Rate, sensitive strains, 0.1 μg/mL): > 50%
inhibition at 0.2 µg/mL ([1]; Fusarium graminearum, read-out: Growth Inhibition Rate, sensitive strains, 0.2 μg/mL): 77.1%
Average Fungal Colony Diameter ([1]; sensitive strains, 0.0125 μg/mL): 53.5 mm
Average Fungal Colony Diameter ([1]; sensitive strains, 0.025 μg/mL): 46.4 mm
Average Fungal Colony Diameter ([1]; sensitive strains, 0.05 μg/mL): 44.5 mm
Average Fungal Colony Diameter ([1]; sensitive strains, 0.1 μg/mL): 31.8 mm
Average Fungal Colony Diameter ([1]; sensitive strains, 0.2 μg/mL): 17.2 mm
Disease Index Prevention Effect, Leaf Blight ([10]; ipconazole 5 g a.i./Mu): 64.29%
Disease Index Prevention Effect, Leaf Blight ([10]; ipconazole 10 g a.i./Mu): 75.34%
Disease Index Prevention Effect, Powdery Mildew ([11]; ipconazole 5 g a.i./Mu): 76.24%
Disease Index Prevention Effect, Powdery Mildew ([11]; ipconazole 10 g a.i./Mu): 85.64%
DON Biosynthesis Inhibition Rate [12]: 0.36% and 0.31%
Toxin Production Capability [12]: 87.68 μgDON/g by dry weight of hyphae and 52.16 μgDON/g by dry weight of hyphae
inhibitory effects on the toxin biosynthesis capability of the fusaria [12]: does not have significant inhibitory effects
Disease Index Prevention Effect, Fusarium head blight ([13]; ipconazole 5 g a.i./Mu): 43.84%
Disease Index Prevention Effect, Fusarium head blight ([13]; ipconazole 10 g a.i./Mu): 62.41%
Grain Toxin Content ([14]; ipconazole 5 g a.i./Mu): 3.54 mg of DON/Kg of kernel
Toxin Reduction Percentage ([14]; ipconazole 5 g a.i./Mu): 58.50%
Grain Toxin Content ([14]; ipconazole 10 g a.i./Mu): 2.57 mg of DON/Kg of kernel
Toxin Reduction Percentage ([14]; ipconazole 10 g a.i./Mu): 69.87%
Disease Index Prevention Effect, Actual Prevention Effect ([3]; ipconazole 4 g a.i./Mu): 42.65%
Disease Index Prevention Effect, Actual Prevention Effect ([3]; ipconazole 6 g a.i./Mu): 53.45%
Disease Index Prevention Effect, Actual Prevention Effect ([3]; ipconazole 8 g a.i./Mu): 67.58%
Disease Index Prevention Effect, Actual Prevention Effect ([3]; ipconazole 10 g a.i./Mu): 72.41%
Disease Index Prevention Effect, Actual Prevention Effect ([3]; ipconazole 16 g a.i./Mu): 80.33%
DON Contamination Reduction Rate ([4]; ipconazole 4 g a.i./Mu): 49.11%
Grain Toxin Content ([4]; ipconazole 4 g a.i./Mu): 5.41 μg of toxin/g of kernels
DON Contamination Reduction Rate ([4]; ipconazole 6 g a.i./Mu): 59.08%
Grain Toxin Content ([4]; ipconazole 6 g a.i./Mu): 4.35 μg of toxin/g of kernels
DON Contamination Reduction Rate ([4]; ipconazole 8 g a.i./Mu): 61.24%
Grain Toxin Content ([4]; ipconazole 8 g a.i./Mu): 4.12 μg of toxin/g of kernels
DON Contamination Reduction Rate ([4]; ipconazole 10 g a.i./Mu): 63.78%
Grain Toxin Content ([4]; ipconazole 10 g a.i./Mu): 3.85 μg of toxin/g of kernels
DON Contamination Reduction Rate ([4]; ipconazole 16 g a.i./Mu): 71.50%
Grain Toxin Content ([4]; ipconazole 16 g a.i./Mu): 3.03 μg of toxin/g of kernels
inhibition at 0.0125 µg/mL [8, 16]: 29.5%
inhibition at 0.025 µg/mL [8, 16]: 38.6%
inhibition at 0.05 µg/mL [8, 16]: 41.7%
inhibition at 0.1 µg/mL [8, 16]: > 50%
inhibition at 0.2 µg/mL [8, 16]: 76.6%

OCC1=C[C@H](N[C@H]2C[C@H](CO)[C@@H](O[C@@H]3O[C@H](CO)[C@@H](O)[C@H](O)[C@H]3O)[C@H](O)[C@H]2O)[C@H](O)[C@@H](O)[C@@H]1O [Jinggangmycin]
Disease Index Prevention Effect, Rust [9]: 0%
inhibition at 50 µg/mL ([1]; Fusarium graminearum, read-out: Growth Inhibition Rate, sensitive strains, 50 μg/mL): 6.5 to 7.8%
synergistic effect for ipconazole in inhibiting hyphal growth in vitro ([1]; jinggangmycin 0.1-50 μg/mL with ipconazole 0.05 or 0.1 μg/mL): does not have a synergistic effect
Average Fungal Colony Diameter ([1]; sensitive strains, 0.1 μg/mL): 76.3 mm
Average Fungal Colony Diameter ([1]; sensitive strains, 1 μg/mL): 76.2 mm
Average Fungal Colony Diameter ([1]; sensitive strains, 10 μg/mL): 75.4 mm
Average Fungal Colony Diameter ([1]; sensitive strains, 50 μg/mL): 70.3 mm
Growth Inhibition Rate ([1]; sensitive strains, 50 μg/mL): 6.52%
Disease Index Prevention Effect, Leaf Blight ([10]; jinggangmycin 5 g a.i./Mu): 0%
Disease Index Prevention Effect, Leaf Blight ([10]; jinggangmycin 10 g a.i./Mu): 0%
Disease Index Prevention Effect, Powdery Mildew ([11]; jinggangmycin 5 g a.i./Mu): 0%
Disease Index Prevention Effect, Powdery Mildew ([11]; jinggangmycin 10 g a.i./Mu): 0%
inhibition at 1 µg/mL ([12]; 168 h): 28.6%
inhibition at 10 µg/mL ([12]; 168 h): 35.5%
inhibition at 100 µg/mL ([12]; 168 h): 45.2%
inhibition at 1000 µg/mL ([12]; 168 h): 65.5%
inhibition at 10000 µg/mL ([12]; 168 h): 75.9%
inhibition at 1 µg/mL ([12]; 336 h): 1.7%
inhibition at 10 µg/mL ([12]; 336 h): 7.87%
inhibition at 100 µg/mL ([12]; 336 h): 29.9%
inhibition at 1000 µg/mL ([12]; 336 h): 57%
inhibition at 10000 µg/mL ([12]; 336 h): 75.4%
Disease Index Prevention Effect, Fusarium head blight ([13]; jinggangmycin 5 g a.i./Mu): 4.54%
Disease Index Prevention Effect, Fusarium head blight ([13]; jinggangmycin 10 g a.i./Mu): 12.58%
Grain Toxin Content ([14]; jinggangmycin 5 g a.i./Mu): 5.28 mg of DON/Kg of kernel
Toxin Reduction Percentage ([14]; jinggangmycin 5 g a.i./Mu): 38.10%
Grain Toxin Content ([14]; jinggangmycin 10 g a.i./Mu): 4.62 mg of DON/Kg of kernel
Toxin Reduction Percentage ([14]; jinggangmycin 10 g a.i./Mu): 45.84%
Disease Index Prevention Effect, Actual Prevention Effect ([3]; 2 g a.i./Mu): 0%
Disease Index Prevention Effect, Actual Prevention Effect ([3]; jinggangmycin 4 g a.i./Mu): 8.65%
Disease Index Prevention Effect, Actual Prevention Effect ([3]; jinggangmycin 8 g a.i./Mu): 10.24%
Disease Index Prevention Effect, Actual Prevention Effect ([3]; jinggangmycin 10 g a.i./Mu): 14.31%
Disease Index Prevention Effect, Actual Prevention Effect ([3]; jinggangmycin 12 g a.i./Mu): 16.54%
Disease Index Prevention Effect, Actual Prevention Effect ([3]; jinggangmycin 16 g a.i./Mu): 18.65%
DON Contamination Reduction Rate ([4]; 2 g a.i./Mu): 16.18%
Grain Toxin Content ([4]; 2 g a.i./Mu): 8.91 μg of toxin/g of kernels
DON Contamination Reduction Rate ([4]; jinggangmycin 4 g a.i./Mu): 19.00%
Grain Toxin Content ([4]; jinggangmycin 4 g a.i./Mu): 8.61 μg of toxin/g of kernels
DON Contamination Reduction Rate ([4]; jinggangmycin 8 g a.i./Mu): 37.72%
Grain Toxin Content ([4]; jinggangmycin 8 g a.i./Mu): 6.62 μg of toxin/g of kernels
DON Contamination Reduction Rate ([4]; jinggangmycin 10 g a.i./Mu): 41.58%
Grain Toxin Content ([4]; jinggangmycin 10 g a.i./Mu): 6.21 μg of toxin/g of kernels
DON Contamination Reduction Rate ([4]; jinggangmycin 12 g a.i./Mu): 50.99%
Grain Toxin Content ([4]; jinggangmycin 12 g a.i./Mu): 5.21 μg of toxin/g of kernels
DON Contamination Reduction Rate ([4]; jinggangmycin 16 g a.i./Mu): 54.37%
Grain Toxin Content ([4]; jinggangmycin 16 g a.i./Mu): 4.85 μg of toxin/g of kernels
Average Fungal Colony Diameter [8]: 75.6 mm and 69.4 mm and 76.3 mm
inhibitory activity on the growth in vitro [8]: almost does not have inhibitory activity
synergistic effect for ipconazole in inhibiting hyphal growth in vitro [8]: does not have a synergistic effect
inhibition at 50 µg/mL [8, 16]: 6.5 to 7.8%
Rate of Inhibition on Relative Expression Level of Tri5 Gene [15]: 66% and 84% and 87% and 90% and 59%

CCOC(=O)C(C#N)=C(N)c1ccccc1 [Phenamacril, phenamacril]
EC50 [1]: 0.165 µg/mL (≈ 0.763 µM)
